Laboratory results: US8623820B2, “FGF-9 and its use relating to blood vessels” (University of Western Ontario, priority 2008, dated 2014)

Key:
Sonic Hedgehog signaling = experiment: Matrigel plug with cyclopamine, CD31 / SM α-actin immunostaining; type: in vivo, mice; settings: FGF-2+FGF-9 plugs with 500 nM cyclopamine
Experimental: FIG. 15A. RT-PCR of human aortic SMCs stimulated with increasing concentrations of recombinant FGF-9 for 24 h. 15B, RT-PCR of human aortic SMCs overexpressing cDNA encoding GFP or FGF-9. 15C, Western Blots of C57/Bl6 dermal fibroblasts pretreated with either DMSO or 500 nM cyclopamine and subsequently stimulated with vehicle or FGF-9 for 24 hr. 15D. Photomicrographs of FGF-2 and FGF-9 containing matrigel plugs with either DMSO or cyclopamine double immunolabeled for CD31 (brown) and sm α-actin (red). E Quantitation of SM α-actin coverage of CD31-positive vessels representative of 6 mice bearing FGF-2 or FGF-2+FGF-9 with either vehicle or 500 nM cyclopamine (79±4 vs 38±4.8, p<0.05).

[1] = system: SM α-actin expressing mural cells at nascent microvessels; experiment: Matrigel plug, CD31 / SM α-actin immunostaining of 8 μm sections; type: in vivo, C57/Bl6 mice; settings: 8 days after implantation
Description: Photomicrographs of 8 μm-thick sections of Matrigel plugs harvested 8 days after implantation into C57/Bl6 mice and immunostained for CD31 (brown) and smooth muscle α-actin (red) and quantification of the percentage of microvessels supported by smooth muscle (SM) α-actin positive cells.

[2] = system: CD31-positive endothelial cell-lined microvessels; experiment: Subcutaneous matrigel plug angiogenesis, CD31 immunostaining; type: in vivo, C57/Bl6 mice
Experimental: Matrigel plugs were mixed with either 500 ng/mL FGF-9, 500 ng/mL FGF-2 or 500 ng/mL FGF-2 and 200 ng/mL FGF-9 and subcutaneously injected into 3 month old C57/Bl6 mice. Mice were sacrificed and matrigel plugs were harvested 8 days after implantation and immunostained for CD31 (brown), to identify endothelial cell-lined microvessels.
CD31-positive microvessels immunostained in FIGS. 5B and 5C are quantified.

[3] = system: microvessels in matrigel plug; experiment: Intravital vasoreactivity of matrigel plug microvessels; type: in vivo, mice; settings: 14 days after matrigel injection
Experimental: 14 days after matrigel injection mice were anesthetized, the skin overlying a matrigel was surgically removed and a catheter to deliver drugs was sutured in the region of the plug. FITC-labeled dextran was injected via tail vein and the diameter of vessels in the matrigel plug was visualized using an inverted fluorescent microscope. Doses of vasoconstrictors indicated in FIG. 9 were applied and images of vessels were acquired over 5 minutes.
In separate experiments, doses of the vasoconstrictor PE followed by the vasodilator were applied to the blood vessels in matrigel plugs.

[4] = system: SM α-actin positive cells on CD31 nascent blood vessels; experiment: Matrigel plug, SM α-actin coverage of CD31-positive vessels in 200 μm sections; type: in vivo, mice; settings: 200 μm thick sections, 8 days after implantation
Description: Photomicrographs of Matrigel plugs harvested 8 days after implantation, cut into 200 μm thick-sections and immunostained for CD31 (left panel) and SM α-actin (central panel) and quantitation of SM α-actin coverage of CD31-positive vessels.

Molecule: CC1=C2C[C@H]3[C@@H](CC=C4C[C@@H](O)CC[C@@]43C)[C@@H]2CC[C@]12O[C@@H]1C[C@H](C)CN[C@H]1[C@H]2C [cyclopamine]
- SM α-actin coverage of CD31-positive vessels (Sonic Hedgehog signaling): 38±4.8

Molecule: FGF-2: fibroblast growth factor 2, angiogenic polypeptide used as comparator and co-factor
- percentage of microvessels supported by smooth muscle (SM) α-actin positive cells [1]: 37±5.4%
- area of CD31-positive microvessels ([2]; matrigel plugs, 8 days after implantation): equivalent levels of angiogenesis
- angiogenesis, CD31 immunoreactivity inside the matrigel ([2]; plugs with 500 ng/mL FGF-9, 500 ng/mL FGF-2 or 500 ng/mL FGF-2 and 200 ng/mL FGF-9, harvested 8 days after implantation): induce angiogenesis
- constriction of microvessels in response to phenylephrine (PE) and KCl [3]: mild if any response
- SM α-actin positive cell coverage of CD31 nascent blood vessels [4]: 7.2±1.8%
